Here are results for six molecules from US20020002171A1, “Materials and methods for killing nematodes and nematode eggs” (priority 2000, published 2002).

The first assay relates to Caenorhabditis elegans. Put plainly: C. elegans L1 nematicidal dose response in 96-well plates, 5 day visual score (Example 2; same procedure for Example 7, Table 3). The format is in vivo. The arrangement: key to 5 Day Visual Score V1 / 5 Day Visual Score V2 / 5 Day Visual Score V3 / 5 Day Visual Score V4 / 5 Day Visual Score V6 / 5 Day Visual Score V5 / Initial HTS Run Visual Score / Follow-up HTS Run Visual Score: Dead: only stiff L1s (no movement); Dead (L4): worms are dead, but at a later larval stage; majority of worms are L1 (based on size) worms move when plate is tapped; majority of worms are L2 (based on size); majority of worms are L3 (based on size); majority of worms are L4 (based on size); AD: majority of worms are adult; #AD: 5 adult worms or less; B!: sterile (0-25 progeny); B: low broodsize (25-100 progeny); ˜B: moderate broodsize (100-250 progeny); <: reduced broodsize (250-500 progeny); OK: no effect (˜1000+ progeny). The following applies: Follow-up HTS run. The gist of the method: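 Scoring was by eye at 100× on day 5, after incubation at 20° C, of 20 C. elegans L1s per well fed 1% E. coli HB101 in NGM. Compound columns V1–V6 spanned 70 μM to 0.3 μM in 3-fold steps, with 1.4% DMSO in the top well and as control.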
Turning to `CCN(Cc1ccccc1)c1nc(NCc2ccccc2C(F)(F)F)ns1` [compound 320], the “Follow-up HTS Run % Run” value came out at 118% and the “Follow-up HTS Run mOD” value is 190 mOD.
For the molecule `C=CCN(CC=C)c1nc(NCc2ccccc2C(F)(F)F)ns1` [compound 321], the “Follow-up HTS Run % Run” value stood at 116% and the “Follow-up HTS Run mOD” value worked out at 186 mOD.
`CN(CCc1ccccc1)c1nc(NCc2ccccc2C(F)(F)F)ns1` [compound 322]: the “Follow-up HTS Run % Run” value came out at 111%, the “Follow-up HTS Run Visual Score” value is listed as “B (low broodsize (25-100 progeny))” and the “Follow-up HTS Run mOD” value is 178 mOD.
For `CN(Cc1ccccc1)c1nc(NCc2ccccc2C(F)(F)F)ns1` [compound 323] the same measures were 120%, “L4/AD/B!” and 193 mOD.
`Fc1ccc(N2CCN(c3nc(NCc4ccccc4)ns3)CC2)cc1` [compound 324]: the “Follow-up HTS Run % Run” value was found to be 34% and the “Follow-up HTS Run mOD” value is on record as 54 mOD.
As for `CCN(c1nc(NCc2ccccc2)ns1)C1CCCCC1` [compound 325], the “Follow-up HTS Run % Run” value is listed as 111%, the “Follow-up HTS Run Visual Score” value is given as “L4/AD/B” and the “Follow-up HTS Run mOD” value came to 179 mOD.

Still in this assay, the particulars now being: Initial HTS run.
As for `CCN(Cc1ccccc1)c1nc(NCc2ccccc2C(F)(F)F)ns1` [compound 320], the “Initial HTS Run % Run” value is reported as 102% and the “Initial HTS Run mOD” value was 112 mOD.
Regarding `C=CCN(CC=C)c1nc(NCc2ccccc2C(F)(F)F)ns1` [compound 321], the “Initial HTS Run % Run” value was 95%, the “Initial HTS Run Visual Score” value is given as “Dead/2L2” and the “Initial HTS Run mOD” value is listed as 105 mOD.
For `CN(CCc1ccccc1)c1nc(NCc2ccccc2C(F)(F)F)ns1` [compound 322], in that order: 94%, “B!-Clear-Few Eggs” and 103 mOD.
On to `CN(Cc1ccccc1)c1nc(NCc2ccccc2C(F)(F)F)ns1` [compound 323], for which the “Initial HTS Run % Run” value came out at 110%, the “Initial HTS Run Visual Score” value is recorded as “L3/L4/AD/B!-Clear” and the “Initial HTS Run mOD” value turned out to be 121 mOD.
With `Fc1ccc(N2CCN(c3nc(NCc4ccccc4)ns3)CC2)cc1` [compound 324], the “Initial HTS Run % Run” value was 114% and the “Initial HTS Run mOD” value came out at 125 mOD.
As for `CCN(c1nc(NCc2ccccc2)ns1)C1CCCCC1` [compound 325], the “Initial HTS Run % Run” value was 103%, the “Initial HTS Run Visual Score” value was “L3/L4/AD/B” and the “Initial HTS Run mOD” value was 113 mOD.

The same assay, now with this note: dose response, dilution V1, 5 day.
On to `CCN(Cc1ccccc1)c1nc(NCc2ccccc2C(F)(F)F)ns1` [compound 320], for which the “5 Day Visual Score V1” value is recorded as “L4#AD/B!”.
On to `CN(CCc1ccccc1)c1nc(NCc2ccccc2C(F)(F)F)ns1` [compound 322], for which the “5 Day Visual Score V1” value is “B! (sterile (0-25 progeny))”.
On to `CN(Cc1ccccc1)c1nc(NCc2ccccc2C(F)(F)F)ns1` [compound 323], for which the “5 Day Visual Score V1” value is “L4#AD/B!”.
With `Fc1ccc(N2CCN(c3nc(NCc4ccccc4)ns3)CC2)cc1` [compound 324], the “5 Day Visual Score V1” value is recorded as “L1”.

The assay is the same for the next values; noted with them: dose response, dilution V2, 5 day.
As to `CCN(Cc1ccccc1)c1nc(NCc2ccccc2C(F)(F)F)ns1` [compound 320], the “5 Day Visual Score V2” value is given as “< (reduced broodsize (250-500 progeny))”.
In the case of `CCN(c1nc(NCc2ccccc2)ns1)C1CCCCC1` [compound 325], the “5 Day Visual Score V2” value is “#AD/˜B”.

Still in this assay, the particulars now being: dose response, dilution V3, 5 day.
Consider `CCN(Cc1ccccc1)c1nc(NCc2ccccc2C(F)(F)F)ns1` [compound 320], for which the “5 Day Visual Score V3” value is “OK (no effect (˜1000+ progeny))”.
Still for that read-out and setting: with `CN(CCc1ccccc1)c1nc(NCc2ccccc2C(F)(F)F)ns1` [compound 322] the entry was “OK (no effect (˜1000+ progeny))”; with `CN(Cc1ccccc1)c1nc(NCc2ccccc2C(F)(F)F)ns1` [compound 323], “OK (no effect (˜1000+ progeny))”; with `CCN(c1nc(NCc2ccccc2)ns1)C1CCCCC1` [compound 325], “< (reduced broodsize (250-500 progeny))”.

Still in this assay, the particulars now being: dose response, dilution V4, 5 day.
Turning to `CCN(Cc1ccccc1)c1nc(NCc2ccccc2C(F)(F)F)ns1` [compound 320], the “5 Day Visual Score V4” value is given as “OK (no effect (˜1000+ progeny))”.
On to `C=CCN(CC=C)c1nc(NCc2ccccc2C(F)(F)F)ns1` [compound 321], for which the “5 Day Visual Score V4” value is recorded as “OK (no effect (˜1000+ progeny))”.
The same measure, in the same setting: with `CN(CCc1ccccc1)c1nc(NCc2ccccc2C(F)(F)F)ns1` [compound 322] the entry was “OK (no effect (˜1000+ progeny))”.
`CN(Cc1ccccc1)c1nc(NCc2ccccc2C(F)(F)F)ns1` [compound 323]: the “5 Day Visual Score V4” value is recorded as “< (reduced broodsize (250-500 progeny))”.
For `Fc1ccc(N2CCN(c3nc(NCc4ccccc4)ns3)CC2)cc1` [compound 324], the “5 Day Visual Score V4” value is given as “OK (no effect (˜1000+ progeny))”.
Regarding `CCN(c1nc(NCc2ccccc2)ns1)C1CCCCC1` [compound 325], the “5 Day Visual Score V4” value is “< (reduced broodsize (250-500 progeny))”.

Still in this assay, the particulars now being: dose response, dilution V5, 5 day.
For `CCN(Cc1ccccc1)c1nc(NCc2ccccc2C(F)(F)F)ns1` [compound 320], the “5 Day Visual Score V5” value is reported as “OK (no effect (˜1000+ progeny))”.
As for `C=CCN(CC=C)c1nc(NCc2ccccc2C(F)(F)F)ns1` [compound 321], the “5 Day Visual Score V5” value is “OK (no effect (˜1000+ progeny))”.
Still for that read-out and setting: the value for `CN(CCc1ccccc1)c1nc(NCc2ccccc2C(F)(F)F)ns1` [compound 322] was “OK (no effect (˜1000+ progeny))”; that for `CN(Cc1ccccc1)c1nc(NCc2ccccc2C(F)(F)F)ns1` [compound 323] was “OK (no effect (˜1000+ progeny))”; that for `Fc1ccc(N2CCN(c3nc(NCc4ccccc4)ns3)CC2)cc1` [compound 324] was “< (reduced broodsize (250-500 progeny))”.
Still for that read-out and setting: with `CCN(c1nc(NCc2ccccc2)ns1)C1CCCCC1` [compound 325] the entry was “< (reduced broodsize (250-500 progeny))”.

The assay is the same for the next values; noted with them: dose response, dilution V6, 5 day.
Regarding `CCN(Cc1ccccc1)c1nc(NCc2ccccc2C(F)(F)F)ns1` [compound 320], the “5 Day Visual Score V6” value is listed as “OK (no effect (˜1000+ progeny))”.
The same measure, in the same setting: with `C=CCN(CC=C)c1nc(NCc2ccccc2C(F)(F)F)ns1` [compound 321] the entry was “OK (no effect (˜1000+ progeny))”; with `CN(CCc1ccccc1)c1nc(NCc2ccccc2C(F)(F)F)ns1` [compound 322], “OK (no effect (˜1000+ progeny))”.
On the same count and under the same terms, with `CN(Cc1ccccc1)c1nc(NCc2ccccc2C(F)(F)F)ns1` [compound 323] the entry was “OK (no effect (˜1000+ progeny))”; with `Fc1ccc(N2CCN(c3nc(NCc4ccccc4)ns3)CC2)cc1` [compound 324], “OK (no effect (˜1000+ progeny))”.
Still for that read-out and setting: the value for `CCN(c1nc(NCc2ccccc2)ns1)C1CCCCC1` [compound 325] was “OK (no effect (˜1000+ progeny))”.
